# Measurements taken from US12258424B2, “Polypeptides and compositions comprising the same” (priority 2020, dated 2025).
# “And” between values parts separate entries of the source, which are not always exact repeats. Equal entries are not always repeated. Residues, ends and D or L forms follow the SMILES beside them.
# Columns and labels:
# [1] = molecular target: human PD-L1/CD80 interaction (Homo sapiens, UniProt Q9NZQ7); test: Blockade of the CD80/PD-L1 interaction; format: binding; details: at 10 μM, FIG. 8a
# [2] = system: CT26 colorectal tumor-bearing mouse model; test: Anti-tumor activity in CT26 tumor-bearing Balb/C mice; format: in vivo
# Text: (§1) Animal Study. The animal protocol was approved by the University of Missouri-Kansas City, Institutional Animal Care and Use Committee (IACUC). Five-week old male and female Balb/c mice were purchased from Charles Rivers Laboratories (Wilmington, Mass.) and housed in a temperature and humidity controlled room on a 12-hour light-dark cycle. Approximately 5×10^5 CT26 cells were subcutaneously injected into the right flank. The mice were randomly divided into five different groups (10 mice/group, 50% female, 50% male). The mice were intraperitoneally injected with 2 mg/kg peptide daily when the tumor size reached 50-100 mm^3. The anti-mouse PD-L1 antibody (10F.9G2, BioXcell) was administrated as a positive control at a dose of 10 mg/kg every two days. The tumor size was assessed with a caliper and calculated with the formula 0.5×length×width^2. ELISA kits of PD-L1 (Cat #DY1019-05), IFNγ (Cat #DY485-05), and IL-6 (Cat #DY406-05) were used to measure the expressions of PD-L1, IFNγ, and IL-6, respectively, in tumors as per the company's instructions (R & D Systems, Minneapolis, MN).
# The anti-mouse PD-L1 antibody (BioXcell, 10F.9G2) was administered intraperitoneally every other day at 10 mg/kg. […] In general, CLP002 (SEQ ID NO:2) exerted a better tumor inhibitory effect than CLP003 (SEQ ID NO:3), which was similar to the antibody. […] In FIG. 6e the weight of the tumors harvested at day 14 is shown. The results were represented as the mean±SD (n=10). It is noteworthy that the peptides were screened against the human PD-L1 protein, which, in fact, would compromise the anti-tumor activity of the peptides in a mouse model.
# 4T1 cancer cell = format: cell-based, mouse
# mPD-L1 = mPD-L1 (Mus musculus, UniProt Q9EP73); test: Blockade of the mouse PD-1/PD-L1 interaction, mouse PD-L1 protein; format: binding; set-up: purchased G&P Biosciences FCL3502B (PD-L1)
# Method: Ninety-six-well plates were coated with 100 ng of PD-L1 protein (G&P Biosciences, human PD-L1 ECD, cat #FCL0784B. mouse PD-L1, cat #FCL3502B) and later blocked with 2% BSA for 2 hours at room temperature. Various concentrations of peptides were loaded into the wells and incubated for 1 hour at room temperature. […] Streptavidin-HRP (R & D systems) and chromogenic substrate were added into the wells. OD450 was then recorded and referenced to OD540.
# [3] = system: 3D tumor spheroids of MDA-MB-231 cells; test: 3D tumor spheroid penetration assay; format: cell-based, human; details: Cy5-labeled, 2 and 6 hours
# Method: 3D Tumor Spheroid Penetration Assay. 3D spheroids of MDA-MB-231 cells were generated using the Spheroid Formation Extracellular Matrix (ECM) as per the company's protocol (Amsbio, Cambridge, MA). Briefly, 3,000 tumor cells were mixed with 50 μL Spheroid Formation ECM and loaded into a Corning™ 96-well Ultra-low Attachment Treated Spheroid Microplate (Corning, Pittsburgh, PA). The plate was centrifuged at 200 g for 3 min at 4° C. The cells were then incubated at 37° C. until the diameter reached approximately 700 μm. The Cy5-labeled CLP002 peptide and anti-PD-L1 antibody were incubated with the spheroids for 2 or 6 hours. After washing, penetration of the peptide and antibody inside the tumor spheroids was determined using confocal microscopy.
# [4] = system: Jurkat T cells co-cultured with DU-145 cancer cells; test: Jurkat T cell apoptosis in co-culture with DU-145 cells (Annexin V/PI); format: cell-based, human; details: co-culture with DU-145 (15.1% untreated); peptide 5 μM or antibody 1 μM, 24 hours
# Method: Proliferation and Apoptosis Assays. […] Briefly, 3×10^4 Jurkat T cells were cultured alone or co-cultured with 1.5×10^5 DU-145 cancer cells in a 24-well plate for the proliferation assay. For the apoptosis assay, 6×10^4 Jurkat T cells were cultured alone or co-cultured with 3×10^5 DU-145 cancer cells in a 6-well plate. After incubation with the anti-PD-L1 peptides (5 μM) or anti-PD-L1 antibody (1 μM) for 24 hours, Jurkat T cells were harvested from the supernatant. Proliferation of Jurkat cells was determined using the CellTiter-Glo luminescent cell viability assay (Promega, WI), and apoptosis of the cells were determined using the Dead Cell Apoptosis Kit with Annexin V Alexa Fluor® 488 and Propidium Iodide (Thermo-Fisher Scientific, Pittsburgh, PA) as we described before^21.
# [5] = system: CT26 tumor-bearing Balb/C mice; test: Survival of CT26 tumor-bearing Balb/C mice; format: in vivo, mouse
# Text: as §1
# In this Example, mice were intraperitoneally injected with the CLP002 (SEQ ID NO:2) and CLP003 (SEQ ID NO:3) peptides daily or the anti-mouse PD-L1 antibody every other day from day 4 to day 17 (see survival curves in FIG. 7a). Specifically, CT26 tumor-bearing Balb/C mice (n=10, 5 male and 5 female) were intraperitoneally injected with the anti-PD-L1 peptides (2 mg/Kg) daily and the anti-mouse PD-L1 antibody (10 mg/Kg) every other day from day 4 to day 17. GraphPad Prism 7 software (San Diego, Calif.) was used for statistical analysis. Comparison of two survival curves were conducted using the Gehan-Breslow-Wilcoxon test. […] By contrast, only 20% of the mice in the CLP002 (SEQ ID NO:2) group were dead by day 17.
# mPD-L1, sequence (Q9EP73 19-239 limits assumed): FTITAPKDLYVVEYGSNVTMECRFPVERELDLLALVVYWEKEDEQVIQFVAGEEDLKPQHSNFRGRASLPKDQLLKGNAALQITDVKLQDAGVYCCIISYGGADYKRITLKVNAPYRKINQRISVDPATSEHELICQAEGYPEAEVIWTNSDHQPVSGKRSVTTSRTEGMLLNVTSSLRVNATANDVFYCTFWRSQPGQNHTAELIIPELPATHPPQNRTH
# human PD-L1/CD80 interaction, sequence (Q9NZQ7 19-238 limits assumed): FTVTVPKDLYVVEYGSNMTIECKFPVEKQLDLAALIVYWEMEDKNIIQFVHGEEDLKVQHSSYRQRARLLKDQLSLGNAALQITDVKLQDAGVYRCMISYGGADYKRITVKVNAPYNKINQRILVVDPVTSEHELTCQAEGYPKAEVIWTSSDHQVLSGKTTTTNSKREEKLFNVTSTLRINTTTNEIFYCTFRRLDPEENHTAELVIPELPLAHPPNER
compound,measurement,setting,value
CC(C)C[C@H](NC(=O)[C@H](CC(N)=O)NC(=O)[C@H](Cc1c[nH]c2ccccc12)NC(=O)[C@@H](NC(=O)[C@H](Cc1ccc(O)cc1)NC(=O)[C@H](Cc1ccc(O)cc1)NC(=O)[C@H](CO)NC(=O)[C@H](CCCNC(=N)N)NC(=O)[C@H](Cc1c[nH]cn1)NC(=O)[C@@H](N)Cc1c[nH]c2ccccc12)[C@@H](C)O)C(=O)N[C@@H](CC(N)=O)C(=O)N[C@H](C(=O)O)[C@@H](C)O [CLP002] (H-WHRSYYTWNLNT-OH; N-terminus and C-terminus assumed),Blocking efficiency against CD80/PD-L1 interaction,[1],~48%
same,Tumor growth,"[2]; peptides 2 mg/kg i.p. daily, antibody 10 mg/kg i.p. every other day",effectively suppressed tumor growth
same,Tumor weights at day 14,[2]; versus saline group,significantly smaller than the saline group
same,Blocking Efficiency (%),4T1 cancer cell; 4T1 cancer cell,61%
same,IC50,4T1 cancer cell; 2 h,2440 nM
same,Blocking efficiency against mouse PD-1/PD-L1 interaction,"mPD-L1; at 10 μM, FIG. 2f",71%
same,Blocking Efficiency (%),mPD-L1; mouse PD-L1 protein,71% and 68%
same,IC50,mPD-L1; mouse PD-L1 protein,1910 nM
same,Tumor spheroid penetration (in words),[3]; confocal microscopy,better tumor penetration than the antibody
same,Depth of penetration from the periphery of the spheroids,[3]; spheroids ~700 μm,approximately 250 μm
same,Apoptosis of Jurkat cells,[4],10.2%
same,Tumor growth in the survival study,"[5]; Example 7, individual growth curves",inhibited tumor growth
same,Mice showing a response to treatment (in words),[5]; n=10,Eight mice showed a response
same,Mice dead by day 17,"[5]; n=10, saline group 90%",20%
same,Survival of tumor-bearing mice,[5]; treatment from day 4 to day 17,improved the survival
